Values quoted from earlier work in US9290518B2, “Water soluble metal-organic frameworks (MOFs)” (Council of Scientific and Industrial Research, priority 2011, dated 2016).

Settings: 25° C., 98% RH, literature

For `O=C1N2CN3C(=O)N4CN5C(=O)N6CN7C(=O)N8CN9C(=O)N%10CN%11C(=O)N%12CN1C1C2N2CN%13C(=O)N(CN%14C(=O)N(CN%15C(=O)N(CN%16C(=O)N(CN%17C(=O)N(CN1C2=O)C%12C%11%17)C%10C9%16)C8C7%15)C6C5%14)C4C3%13` (stereo not shown) [cucurbit [6]uril], the proton conductivity is listed as 1.1×10^−3 S cm^−1.
